{"source": "patent EP0390515A1", "about": "“Novel adenine derivatives and their use as agents for increasing crop yields” (MITSUBISHI GAS CHEMICAL COMPANY, INC., priority 1989, dated 1990)", "key": {"[1]": {"test_system": "Rice seeds (var.: Nankin No. 11) leaf section", "assay": "Assay of cytokinin activity by measurement of chlorophyll content (senescence retardation of rice leaf sections)", "format": "cell-based, Rice (var.: Nankin No. 11)", "details": "dark, 30°C, 3 days", "description": "Rice seeds (var.: Nankin No. 11) were sown in soil mixed with fertilizer in a seed box and raised for about one month in a greenhouse (25°C in the daytime and 15°C in the night).\nA leaf section 1 cm long was cut off from the center of the fourth leaf of the seedlings at the sixth leaf stage. Five leaf sections as one group which had been cut off were floated on the surface of an aqueous solution (2 ml) of the candidate compound or benzyl adenine at a given concentration contained in a glass tubular bottle of 32 mm in inner diameter. This was left to stand in the dark at 30°C for 3 days. The leaf sections were taken out and put in a test tube containing 10 ml of 80% ethanol and the glass tube was immersed in a water bath of 80°C for 20 minutes to extract chlorophyll. After cooling, 80% ethanol was added to make up to 10 ml and absorbance at 665 nm was measured. For the untreated group, water was used in place of the candidate solution in all examples.\nSenescence retardation was determined according to the degree of chlorophyll retention, that is, calculated using the following formula (in all examples). [formula] • (A) : Absorbance of treated group after 3 days • (B) : Absorbance of untreated group after 3 days • (C) : Absorbance of leaves before treatment."}, "Water solubility": {"assay": "Water solubility", "format": "physicochemical", "description": "Water solubility of adenine derivatives of the present invention and representative known cytokinin substances was measured and the results are shown in Table 7. […]"}, "leaf of wheat": {"test_system": "leaf of wheat", "assay": "Absorption from the surface of the leaf of wheat and translocation (length of green portion)", "format": "cell-based, wheat [var.: Yukichabo (Triticum astivum)]", "details": "for The length of the green portion (mm) (average in 10 leaves): 10 µl in 0.2% Tween 80 on centre of wheat leaf section, 25°C, 5 days, dark", "description": "In the same manner as in the above Example 8 test (1), wheat seedlings were grown to a height of 12 - 13 cm and a portion was cut off from tle region 4 cm from the tip of the first true leaf and this leaf section was used for this test.\nThe bottom of a Petri dish 9 cm in diameter was covered with a sheet of circular filter paper which was wetted with 2.5 ml of distilled water. A slide glass was put thereon and ten of the leaf sections were arranged on this slide glass with the upper surface of the leaf being uppermost. On the center of the leaf sections was put 10 µl of the solution prepared by dissolving the candidate compound or benzyladenine in a 0.2% aqueous solution of Tween 80 at a given concentration. The Petri dish was covered and left at 25°C for 5 days in the dark. In the part where the candidate solution was absorbed and translocated around the position on which the solution was put, the length of the portion where chlorophyll was retained, namely, the length of the green portion was measured. […]"}, "[2]": {"test_system": "pig weed (Amaranthus caudatus)", "assay": "Assay of cytokinin activity to promote synthesis of betacyanin by pig weed cotyledon sections", "format": "cell-based", "details": "27°C, 20 hours, dark", "description": "Two sheets of filter paper were put double in a plastic container (19 x 28 cm) and were wetted with 60 ml of distilled water. Seeds of pig weed were sown on the filter papers and were germinated by keeping them in the dark at 27°C for 3 days. Seedlings of uniform size were chosen and were cut at the upper part of the hypocotyl and the seed coats were removed. This cotyledon with hypocotyl of 3-4 mm in length was used for assay.\nTwo sheets of filter paper were put double in a glass tubular bottle 32 mm in inner diameter and 1 ml of 0.0065M potassium phosphate buffer solution (pH: 6.3) containing a given concentration of the candidate compound, benzyladenine or zeatin and 0.5 g/l of tyrosine was added therein and ten of the above cotyledon sections were arranged therein and kept at 27°C for 20 hours in the dark. These ten cotyledon sections were put in a test tube containing 3 ml of distilled water and betacyanin was extracted by repeating thrice freezing and thawing. Absorbance of the solution was measured and the amount of the dye was calculated by the difference between the absorbance at 542 nm and at 620 nm. For the untreated group, 0.0065M potassium phosphate buffer solution (pH: 6.3) containing 0.5 g/l of tyrosine was used."}, "leaf section of wheat": {"test_system": "leaf section of wheat", "assay": "Activity on leaf section of wheat (senescence retardation, chlorophyll retention)", "format": "cell-based, wheat [var.: Yukichabo (Triticum astivum)]", "details": "wheat leaf sections, 25°C, 4 days, dark", "description": "Seeds of wheat [var.: Yukichabo (Triticum astivum)] were sown in vermiculite packed in a seed-bed box and were sprouted by keeping them at 28°C for 2 days in the dark. The seedlings wera grown at 25°C for 5 days under irradiation with light of 1500 Lx. When they grew to a length of 12 - 13 cm, a portion having a length of 1 cm was cut off from the leaf in the region 2 - 5 cm from the tip of the first true leaf. Five of the leaf sections as one group were floated with the upper surface of the leaf being uppermost on the surface of aqueous solution (2 ml) of a given concentration of the candidate compound or benzyladenine contained in a glass tubular bottle 32 mm in inner diameter. These were placed at 25°C for 4 days in the dark and thereafter, these leaf sections were put in a test tube containing 10 ml of 80% ethanol and this test tube was immersed in a water bath at 80°C for 20 minutes to extract chlorophyll. After cooling, 80% ethanol was added to make up to 10 ml and absorbance at 665 nm was measured. Senescence retardation was determined according to the degree of retention of chlorophyll. For the untreated group, water was used in place of the aqueous solution of candidate compound."}, "[3]": {"test_system": "glycine (soybean) hypocotyl section", "assay": "Assay for cytokinin activity according to glycine (soybean) hypocotyl section growth test (callus weight)", "format": "cell-based, Soybean (var.: Enrei)", "details": "Miller's medium with 2,4-D, dark, 30°C, about one month", "description": "Soybean seeds (var.: Enrei) were disinfected with antiformin containing 0.7% effective chlorine for 4 minutes and washed thrice with sterilized water.\nAgar (15 ml, 1.6%) was put in a test tube 2.5 cm in diameter. A groove was cut by forceps on the surface of the agar and two soybean seeds treated as above were placed in this groove and kept in the dark at 30°C for 5 days.\nIn a glass tubular bottle 26 mm in inner diameter was put Miller's medium, to which a given concentration of the candidate compound, benzyladenine or zeatin and […] of 2,4-D were added. The central portion of hypocotyl budding out from the above seeds was cut off to give a section 1 mm thick. Four of the sections as one group were transplanted to the Miller's medium. This was placed in the dark at 30°C for about one month and then the weight of callus formed was measured. For untreated group, the Miller's medium containing 9 mg/l of 2,4-D was used."}}, "note": "Where two headings read alike, the source gives them in different places.", "data": [{"compound": "c1ccc(CNc2ncnc3nc[nH]c23)cc1", "note": "[Benzyladenine, 6-benzylaminopurine, reference compound]", "values": [{"measurement": "The senescence retardation (%)", "setting": "[1]; 0.001 mg/l", "value": 17, "unit": "%"}, {"measurement": "The senescence retardation (%)", "setting": "[1]; 0.01 mg/l", "value": 64, "unit": "%"}, {"measurement": "The senescence retardation (%)", "setting": "[1]; 0.1 mg/l", "value": 93, "unit": "%"}, {"measurement": "The senescence retardation (%)", "setting": "[1]; 1.0 mg/l", "value": 93, "unit": "%"}, {"measurement": "solubility", "setting": "Water solubility", "value": 0.03, "unit": "mg/mL"}, {"measurement": "The length of the green portion (mm) (average in 10 leaves)", "setting": "leaf of wheat; 0.1 mg/l", "value": 9.6, "unit": "mm"}, {"measurement": "The length of the green portion (mm) (average in 10 leaves)", "setting": "leaf of wheat; 1.0 mg/l", "value": 14.2, "unit": "mm"}, {"measurement": "The length of the green portion (mm) (average in 10 leaves)", "setting": "leaf of wheat; 10 mg/l", "value": 16.9, "unit": "mm"}, {"measurement": "The amount of betacyanin produced (difference between absorbance at 542 nm and 620 nm)", "setting": "[2]; 0.001 mg/l", "value": 0.038}, {"measurement": "The amount of betacyanin produced (difference between absorbance at 542 nm and 620 nm)", "setting": "[2]; 0.01 mg/l", "value": 0.076}, {"measurement": "The amount of betacyanin produced (difference between absorbance at 542 nm and 620 nm)", "setting": "[2]; 0.1 mg/l", "value": 0.192}, {"measurement": "The amount of betacyanin produced (difference between absorbance at 542 nm and 620 nm)", "setting": "[2]; 1.0 mg/l", "value": 0.260}, {"measurement": "The senescence retardation (%)", "setting": "leaf section of wheat; 0.0001 mg/l", "value": 7, "unit": "%"}, {"measurement": "The senescence retardation (%)", "setting": "leaf section of wheat; 0.001 mg/l", "value": 15, "unit": "%"}, {"measurement": "The senescence retardation (%)", "setting": "leaf section of wheat; 0.01 mg/l", "value": 50, "unit": "%"}, {"measurement": "The senescence retardation (%)", "setting": "leaf section of wheat; 0.1 mg/l", "value": 55, "unit": "%"}, {"measurement": "The senescence retardation (%)", "setting": "leaf section of wheat; 1.0 mg/l", "value": 74, "unit": "%"}, {"measurement": "The senescence retardation (%)", "setting": "leaf section of wheat; 10 mg/l", "value": 75, "unit": "%"}, {"measurement": "The weight of soybean callus formed", "setting": "[3]; 0.001 mg/l", "value": 76, "unit": "mg"}, {"measurement": "The weight of soybean callus formed", "setting": "[3]; 0.01 mg/l", "value": 836, "unit": "mg"}, {"measurement": "The weight of soybean callus formed", "setting": "[3]; 0.1 mg/l", "value": 674, "unit": "mg"}]}, {"compound": "CON(C)CCNc1ncnc2nc[nH]c12", "note": "[MAED, N⁶-[2-(N-methoxy-N-methylamino)ethyl]adenine]", "values": [{"measurement": "The senescence retardation (%)", "setting": "[1]; 0.001 mg/l", "value": 14, "unit": "%"}, {"measurement": "The senescence retardation (%)", "setting": "[1]; 0.01 mg/l", "value": 60, "unit": "%"}, {"measurement": "The senescence retardation (%)", "setting": "[1]; 0.1 mg/l", "value": 100, "unit": "%"}, {"measurement": "The senescence retardation (%)", "setting": "[1]; 1.0 mg/l", "value": 95, "unit": "%"}, {"measurement": "solubility", "setting": "Water solubility; 20°C, read-out: Solubility (g/100 g H₂O) (20°C)", "value": 99, "unit": "mg/mL"}, {"measurement": "The length of the green portion (mm) (average in 10 leaves)", "setting": "leaf of wheat; 0.1 mg/l", "value": 9.9, "unit": "mm"}, {"measurement": "The length of the green portion (mm) (average in 10 leaves)", "setting": "leaf of wheat; 1.0 mg/l", "value": 19.8, "unit": "mm"}, {"measurement": "The length of the green portion (mm) (average in 10 leaves)", "setting": "leaf of wheat; 10 mg/l", "value": 28.8, "unit": "mm"}, {"measurement": "green portion compared with benzyladenine (absorbability and translocation)", "setting": "leaf of wheat; at the same concentration, result in words", "value": "expanded the green portion in more widely than benzyladenine"}, {"measurement": "The amount of betacyanin produced (difference between absorbance at 542 nm and 620 nm)", "setting": "[2]; 0.001 mg/l", "value": 0.040}, {"measurement": "The amount of betacyanin produced (difference between absorbance at 542 nm and 620 nm)", "setting": "[2]; 0.01 mg/l", "value": 0.058}, {"measurement": "The amount of betacyanin produced (difference between absorbance at 542 nm and 620 nm)", "setting": "[2]; 0.1 mg/l", "value": 0.121}, {"measurement": "The amount of betacyanin produced (difference between absorbance at 542 nm and 620 nm)", "setting": "[2]; 1.0 mg/l", "value": 0.214}, {"measurement": "The senescence retardation (%)", "setting": "leaf section of wheat; 0.0001 mg/l", "value": 4, "unit": "%"}, {"measurement": "The senescence retardation (%)", "setting": "leaf section of wheat; 0.001 mg/l", "value": 14, "unit": "%"}, {"measurement": "The senescence retardation (%)", "setting": "leaf section of wheat; 0.01 mg/l", "value": 43, "unit": "%"}, {"measurement": "The senescence retardation (%)", "setting": "leaf section of wheat; 0.1 mg/l", "value": 56, "unit": "%"}, {"measurement": "The senescence retardation (%)", "setting": "leaf section of wheat; 1.0 mg/l", "value": 58, "unit": "%"}, {"measurement": "The senescence retardation (%)", "setting": "leaf section of wheat; 10 mg/l", "value": 76, "unit": "%"}, {"measurement": "The weight of soybean callus formed", "setting": "[3]; 0.001 mg/l", "value": 97, "unit": "mg"}, {"measurement": "The weight of soybean callus formed", "setting": "[3]; 0.01 mg/l", "value": 182, "unit": "mg"}, {"measurement": "The weight of soybean callus formed", "setting": "[3]; 0.1 mg/l", "value": 654, "unit": "mg"}, {"measurement": "The weight of soybean callus formed", "setting": "[3]; 1.0 mg/l", "value": 823, "unit": "mg"}, {"measurement": "The weight of soybean callus formed", "setting": "[3]; 10 mg/l", "value": 705, "unit": "mg"}]}]}
